Laboratory results taken from patent publication US10206399B2, “Herbicidal composition comprising uracil compound as active ingredient” (Dongbu Farm Hannong Co., Ltd., priority 2012, dated 2019).
Like-named read-outs stand apart in the source and are kept apart here.

Key:
Xanthium spinosum = assay: whole plant or invertebrate; conditions: for pest or weed control at 150 g/ha: read-out: plant mortality, measured value, 150 g/ha; for pest or weed control at 300 g/ha: read-out: plant mortality, measured value, 300 g/ha
Source text: (§1) X is % damage by uracil compound (a) of formula 1 at the rate of application of p kg/ha; Y is % damage by conventional herbicidal compound (b) at the rate of application of q kg/ha; and E is the expected damage caused by compounds (a) and (b) at a rate of application of p and q kg/ha.
(§2) The expected activity for a given combination of two herbicides can be calculated using equation 1 above.

Abutilon theophrasti = assay: whole plant or invertebrate; conditions: for pest or weed control at 150 g/ha: read-out: plant mortality, measured value, 150 g/ha; for pest or weed control at 300 g/ha: read-out: plant mortality, measured value, 300 g/ha
Source text: as §1, §2

Aeschynomene indica = assay: whole plant or invertebrate; conditions: for pest or weed control at 150 g/ha: read-out: plant mortality, measured value, 150 g/ha; for pest or weed control at 300 g/ha: read-out: plant mortality, measured value, 300 g/ha
Source text: as §1, §2

Digitaria sanguinalis = conditions: for Digitaria sanguinalis mortality, measured value: 20 days after treatment; for plant mortality, measured value: Digitaria sanguinalis
Source text: as §1, §2

Echinochloa crus = conditions: for Echinochloa crus mortality, measured value: 20 days after treatment; for plant mortality, measured value: Echinochloa crus
Source text: as §1, §2

[1] = 480 h, read-out: Xanthium spinosum mortality, measured value
[2] = 480 h, read-out: Abutilon theophrasti mortality, measured value
[3] = 480 h, read-out: Aeschynomene indica mortality, measured value
[4] = read-out: plant mortality, measured value, 75 g/ha
[5] = read-out: Data (measured value) Xanthium spinosum, 200 g/ha
[6] = read-out: Data (measured value) Abutilon theophrasti, 200 g/ha
[7] = read-out: Data (measured value) Aeschynomene indica, 200 g/ha
[8] = read-out: plant mortality, measured value, 50 g/ha
[9] = read-out: plant mortality, measured value, 100 g/ha
[10] = read-out: plant mortality, measured value, 200 g/ha
[11] = read-out: plant mortality, measured value, 600 g/ha

## CC(Oc1ccc(Oc2ccc(C(F)(F)F)cn2)cc1)C(=O)O (stereo not shown) [Fluazifop, reference compound]
Xanthium spinosum; [1]
  mortality at 50 g/ha: 0%
  mortality at 100 g/ha: 0%
  mortality at 200 g/ha: 0%
Abutilon theophrasti; [2]
  mortality at 50 g/ha: 0%
  mortality at 100 g/ha: 0%
  mortality at 200 g/ha: 0%
Aeschynomene indica; [3]
  mortality at 50 g/ha: 0%
  mortality at 100 g/ha: 0%
  mortality at 200 g/ha: 0%
Digitaria sanguinalis; 50 g/ha
  Digitaria sanguinalis mortality, measured value: 9%
Digitaria sanguinalis; 100 g/ha
  Digitaria sanguinalis mortality, measured value: 21%
Digitaria sanguinalis; 200 g/ha
  Digitaria sanguinalis mortality, measured value: 52%
Echinochloa crus; 50 g/ha
  Echinochloa crus mortality, measured value: 10%
Echinochloa crus; 100 g/ha
  Echinochloa crus mortality, measured value: 26%
Echinochloa crus; 200 g/ha
  Echinochloa crus mortality, measured value: 61%

## O=C(O)COc1nc(Cl)c(Cl)cc1Cl [Triclopyr]
Xanthium spinosum; read-out: Data (measured value) Xanthium spinosum, 125 g/ha
  pest or weed control at 125 g/ha: 13%
Xanthium spinosum; read-out: Data (measured value) Xanthium spinosum, 250 g/ha
  pest or weed control at 250 g/ha: 30%
Xanthium spinosum; read-out: Data (measured value) Xanthium spinosum, 500 g/ha
  pest or weed control at 500 g/ha: 59%
Abutilon theophrasti; read-out: Data (measured value) Abutilon theophrasti, 125 g/ha
  pest or weed control at 125 g/ha: 11%
Abutilon theophrasti; read-out: Data (measured value) Abutilon theophrasti, 250 g/ha
  pest or weed control at 250 g/ha: 23%
Abutilon theophrasti; read-out: Data (measured value) Abutilon theophrasti, 500 g/ha
  pest or weed control at 500 g/ha: 54%
Aeschynomene indica; read-out: Data (measured value) Aeschynomene indica, 125 g/ha
  pest or weed control at 125 g/ha: 9%
Aeschynomene indica; read-out: Data (measured value) Aeschynomene indica, 250 g/ha
  pest or weed control at 250 g/ha: 26%
Aeschynomene indica; read-out: Data (measured value) Aeschynomene indica, 500 g/ha
  pest or weed control at 500 g/ha: 58%
Digitaria sanguinalis; 125 g/ha
  Data (measured value) Digitaria sanguinalis: 0
Digitaria sanguinalis; 250 g/ha
  Data (measured value) Digitaria sanguinalis: 0
Digitaria sanguinalis; 500 g/ha
  Data (measured value) Digitaria sanguinalis: 0
Echinochloa crus; 125 g/ha
  Data (measured value) Echinochloa crus: 0
Echinochloa crus; 250 g/ha
  Data (measured value) Echinochloa crus: 0
Echinochloa crus; 500 g/ha
  Data (measured value) Echinochloa crus: 0

## CP(=O)(O)CCC(N)C(=O)O (stereo not shown) [Glufosinate, reference compound]
Xanthium spinosum; [1]
  mortality at 75 g/ha: 13%
  mortality at 150 g/ha: 25%
  mortality at 300 g/ha: 56%
Xanthium spinosum; [4]
  pest or weed control at 75 g/ha: 13%
Xanthium spinosum
  pest or weed control at 150 g/ha: 25%
  pest or weed control at 300 g/ha: 56%
Abutilon theophrasti; [2]
  mortality at 75 g/ha: 7%
  mortality at 150 g/ha: 25%
  mortality at 300 g/ha: 49%
Abutilon theophrasti; [4]
  pest or weed control at 75 g/ha: 7%
Abutilon theophrasti
  pest or weed control at 150 g/ha: 25%
  pest or weed control at 300 g/ha: 49%
Aeschynomene indica; [3]
  mortality at 75 g/ha: 5%
  mortality at 150 g/ha: 18%
  mortality at 300 g/ha: 46%
Aeschynomene indica; [4]
  pest or weed control at 75 g/ha: 5%
Aeschynomene indica
  pest or weed control at 150 g/ha: 18%
  pest or weed control at 300 g/ha: 46%
Digitaria sanguinalis; 75 g/ha
  Digitaria sanguinalis mortality, measured value: 11%
  plant mortality, measured value: 11
Digitaria sanguinalis; 150 g/ha
  Digitaria sanguinalis mortality, measured value: 27%
  plant mortality, measured value: 27
Digitaria sanguinalis; 300 g/ha
  Digitaria sanguinalis mortality, measured value: 57%
  plant mortality, measured value: 57
Echinochloa crus; 75 g/ha
  Echinochloa crus mortality, measured value: 15%
  plant mortality, measured value: 15
Echinochloa crus; 150 g/ha
  Echinochloa crus mortality, measured value: 29%
  plant mortality, measured value: 29
Echinochloa crus; 300 g/ha
  Echinochloa crus mortality, measured value: 60%
  plant mortality, measured value: 60

## COc1cc(OC)nc(Oc2cccc(Oc3nc(OC)cc(OC)n3)c2C(=O)O)n1 [Bispyribac-sodium]
Xanthium spinosum; read-out: Data (measured value) Xanthium spinosum, 15 g/ha
  pest or weed control at 15 g/ha: 27%
Xanthium spinosum; read-out: Data (measured value) Xanthium spinosum, 30 g/ha
  pest or weed control at 30 g/ha: 58%
Abutilon theophrasti; read-out: Data (measured value) Abutilon theophrasti, 15 g/ha
  pest or weed control at 15 g/ha: 31%
Abutilon theophrasti; read-out: Data (measured value) Abutilon theophrasti, 30 g/ha
  pest or weed control at 30 g/ha: 62%
Aeschynomene indica; read-out: Data (measured value) Aeschynomene indica, 15 g/ha
  pest or weed control at 15 g/ha: 23%
Aeschynomene indica; read-out: Data (measured value) Aeschynomene indica, 30 g/ha
  pest or weed control at 30 g/ha: 49%
Digitaria sanguinalis; 15 g/ha
  Data (measured value) Digitaria sanguinalis: 20
Digitaria sanguinalis; 30 g/ha
  Data (measured value) Digitaria sanguinalis: 47
Echinochloa crus; 15 g/ha
  Data (measured value) Echinochloa crus: 23
Echinochloa crus; 30 g/ha
  Data (measured value) Echinochloa crus: 45

## Cc1cc(Cl)ccc1OC(C)C(=O)O (stereo not shown) [Mecoprop]
Xanthium spinosum; [5]
  pest or weed control at 200 g/ha: 9%
Xanthium spinosum; read-out: Data (measured value) Xanthium spinosum, 400 g/ha
  pest or weed control at 400 g/ha: 19%
Xanthium spinosum; read-out: Data (measured value) Xanthium spinosum, 800 g/ha
  pest or weed control at 800 g/ha: 45%
Abutilon theophrasti; [6]
  pest or weed control at 200 g/ha: 14%
Abutilon theophrasti; read-out: Data (measured value) Abutilon theophrasti, 400 g/ha
  pest or weed control at 400 g/ha: 29%
Abutilon theophrasti; read-out: Data (measured value) Abutilon theophrasti, 800 g/ha
  pest or weed control at 800 g/ha: 64%
Aeschynomene indica; [7]
  pest or weed control at 200 g/ha: 8%
Aeschynomene indica; read-out: Data (measured value) Aeschynomene indica, 400 g/ha
  pest or weed control at 400 g/ha: 24%
Aeschynomene indica; read-out: Data (measured value) Aeschynomene indica, 800 g/ha
  pest or weed control at 800 g/ha: 55%
Digitaria sanguinalis; 200 g/ha
  Data (measured value) Digitaria sanguinalis: 0
Digitaria sanguinalis; 400 g/ha
  Data (measured value) Digitaria sanguinalis: 0
Digitaria sanguinalis; 800 g/ha
  Data (measured value) Digitaria sanguinalis: 0
Echinochloa crus; 200 g/ha
  Data (measured value) Echinochloa crus: 0
Echinochloa crus; 400 g/ha
  Data (measured value) Echinochloa crus: 0
Echinochloa crus; 800 g/ha
  Data (measured value) Echinochloa crus: 0

## Nc1c(Cl)c(F)nc(OCC(=O)O)c1Cl [Fluroxypyr]
Xanthium spinosum; read-out: Data (measured value) Xanthium spinosum, 50 g/ha
  pest or weed control at 50 g/ha: 7%
Xanthium spinosum; read-out: Data (measured value) Xanthium spinosum, 100 g/ha
  pest or weed control at 100 g/ha: 23%
Xanthium spinosum; [5]
  pest or weed control at 200 g/ha: 54%
Abutilon theophrasti; read-out: Data (measured value) Abutilon theophrasti, 50 g/ha
  pest or weed control at 50 g/ha: 9%
Abutilon theophrasti; read-out: Data (measured value) Abutilon theophrasti, 100 g/ha
  pest or weed control at 100 g/ha: 26%
Abutilon theophrasti; [6]
  pest or weed control at 200 g/ha: 53%
Aeschynomene indica; read-out: Data (measured value) Aeschynomene indica, 50 g/ha
  pest or weed control at 50 g/ha: 13%
Aeschynomene indica; read-out: Data (measured value) Aeschynomene indica, 100 g/ha
  pest or weed control at 100 g/ha: 27%
Aeschynomene indica; [7]
  pest or weed control at 200 g/ha: 63%
Digitaria sanguinalis; 50 g/ha
  Data (measured value) Digitaria sanguinalis: 0
Digitaria sanguinalis; 100 g/ha
  Data (measured value) Digitaria sanguinalis: 0
Digitaria sanguinalis; 200 g/ha
  Data (measured value) Digitaria sanguinalis: 0
Echinochloa crus; 50 g/ha
  Data (measured value) Echinochloa crus: 0
Echinochloa crus; 100 g/ha
  Data (measured value) Echinochloa crus: 0
Echinochloa crus; 200 g/ha
  Data (measured value) Echinochloa crus: 0

## O=C(O)c1c(Cl)ccc2cc(Cl)cnc12 [Quinclorac]
Xanthium spinosum; [8]
  pest or weed control at 50 g/ha: 11%
Xanthium spinosum; [9]
  pest or weed control at 100 g/ha: 29%
Xanthium spinosum; [10]
  pest or weed control at 200 g/ha: 62%
Abutilon theophrasti; [8]
  pest or weed control at 50 g/ha: 9%
Abutilon theophrasti; [9]
  pest or weed control at 100 g/ha: 26%
Abutilon theophrasti; [10]
  pest or weed control at 200 g/ha: 57%
Aeschynomene indica; [8]
  pest or weed control at 50 g/ha: 10%
Aeschynomene indica; [9]
  pest or weed control at 100 g/ha: 27%
Aeschynomene indica; [10]
  pest or weed control at 200 g/ha: 57%
Digitaria sanguinalis; 50 g/ha
  plant mortality, measured value: 6
Digitaria sanguinalis; 100 g/ha
  plant mortality, measured value: 21
Digitaria sanguinalis; 200 g/ha
  plant mortality, measured value: 49
Echinochloa crus; 50 g/ha
  plant mortality, measured value: 13
Echinochloa crus; 100 g/ha
  plant mortality, measured value: 26
Echinochloa crus; 200 g/ha
  plant mortality, measured value: 55

## COC(=O)CCNC(=O)C(C)Oc1cc(-n2c(=O)cc(C(F)(F)F)n(C)c2=O)c(F)cc1Cl (stereo not shown) [Compound 1, 3-[{2-[2-chloro-5-(3,6-dihydro-3-methyl-2,6-dioxo-4-trifluoromethyl-1(2H)-pyrimidinyl)-4-fluorophenoxy]-1-oxopropyl}amino]propionic acid methyl ester]
Xanthium spinosum; [1]
  mortality at 4 g/ha: 11%
  mortality at 8 g/ha: 39%
  mortality at 16 g/ha: 52%
Abutilon theophrasti; [2]
  mortality at 4 g/ha: 17%
  mortality at 8 g/ha: 45%
  mortality at 16 g/ha: 60%
Aeschynomene indica; [3]
  mortality at 4 g/ha: 18%
  mortality at 8 g/ha: 45%
  mortality at 16 g/ha: 60%
Digitaria sanguinalis; 4 g/ha
  Digitaria sanguinalis mortality, measured value: 0%
Digitaria sanguinalis; 8 g/ha
  Digitaria sanguinalis mortality, measured value: 5%
Digitaria sanguinalis; 16 g/ha
  Digitaria sanguinalis mortality, measured value: 20%
Echinochloa crus; 4 g/ha
  Echinochloa crus mortality, measured value: 0%
Echinochloa crus; 8 g/ha
  Echinochloa crus mortality, measured value: 5%
Echinochloa crus; 16 g/ha
  Echinochloa crus mortality, measured value: 17%

## O=C(O)CNCP(=O)(O)O [Glyphosate, reference compound]
Xanthium spinosum; [1]
  mortality at 150 g/ha: 11%
  mortality at 300 g/ha: 30%
  mortality at 600 g/ha: 64%
Xanthium spinosum
  pest or weed control at 150 g/ha: 11%
  pest or weed control at 300 g/ha: 30%
Xanthium spinosum; [11]
  pest or weed control at 600 g/ha: 64%
Abutilon theophrasti; [2]
  mortality at 150 g/ha: 8%
  mortality at 300 g/ha: 27%
  mortality at 600 g/ha: 59%
Abutilon theophrasti
  pest or weed control at 150 g/ha: 8%
  pest or weed control at 300 g/ha: 27%
Abutilon theophrasti; [11]
  pest or weed control at 600 g/ha: 59%
Aeschynomene indica; [3]
  mortality at 150 g/ha: 9%
  mortality at 300 g/ha: 22%
  mortality at 600 g/ha: 47%
Aeschynomene indica
  pest or weed control at 150 g/ha: 9%
  pest or weed control at 300 g/ha: 22%
Aeschynomene indica; [11]
  pest or weed control at 600 g/ha: 47%
Digitaria sanguinalis; 150 g/ha
  Digitaria sanguinalis mortality, measured value: 8%
  plant mortality, measured value: 8
Digitaria sanguinalis; 300 g/ha
  Digitaria sanguinalis mortality, measured value: 18%
  plant mortality, measured value: 18
Digitaria sanguinalis; 600 g/ha
  Digitaria sanguinalis mortality, measured value: 46%
  plant mortality, measured value: 46
Echinochloa crus; 150 g/ha
  Echinochloa crus mortality, measured value: 12%
  plant mortality, measured value: 12
Echinochloa crus; 300 g/ha
  Echinochloa crus mortality, measured value: 23%
  plant mortality, measured value: 23
Echinochloa crus; 600 g/ha
  Echinochloa crus mortality, measured value: 48%
  plant mortality, measured value: 48
